Measured values reported in US10106539B2, “Spiro-indolines for the treatment and prophylaxis of respiratory syncytial virus infection (RSV)” (REVIRAL LIMITED, priority 2014, dated 2018).
Read-outs that look alike come from different tables or passages of the source.

Assays:
[1] = Liver microsomal stability, human; type: in vitro ADME; details: both sexes, pH 7.4, human liver microsomes
Protocol: Microsomal Incubation: Experimental Procedure
Pooled human liver microsomes (pooled male and female), pooled rat liver microsomes (male Sprague Dawley rats) and pooled dog liver microsomes (male Beagle dog) are purchased from a reputable commercial supplier and stored at −80° C. prior to use.
Microsomes (final protein concentration 0.5 mg/mL), 0.1 M phosphate buffer pH 7.4 and test compound (final substrate concentration 3 μM; final DMSO concentration 0.25%) are pre-incubated at 37° C. prior to the addition of NADPH (final concentration 1 mM) to initiate the reaction. The final incubation volume is 50 μL. A control incubation is included for each compound tested where 0.1 M phosphate buffer pH 7.4 is added instead of NADPH (minus NADPH). Two control compounds are included with each species. All incubations are performed singularly for each test compound.
Compounds are incubated for 0, 5, 15, 30 and 45 min. The control (minus NADPH) is incubated for 45 min only. The reactions are stopped by transferring 25 μL of incubate to 50 μL methanol at the appropriate time points. The termination plates are centrifuged at 2,500 rpm for 20 min at 4° C. to precipitate the protein. Following protein precipitation, the sample supernatants are combined in cassettes of up to 4 compounds, internal standard is added and samples analysed by LC-MS/MS. From a plot of ln peak area ratio (compound peak area/internal standard peak area) against time, the gradient of the line is determined. Subsequently, half-life and intrinsic clearance are calculated

RSV fusion (A2_F) = target: T1, RSV fusion (A2_F) (Human respiratory syncytial virus A, UniProt P03420); assay: RSV fusion assay (luciferase reporter, transfected HEK 293T/17 cells); type: cell-based
T1 construct: expressed in transfected cells; host or cells: HEK 293T/17
Protocol: HEK 293T/17 cells were cultured in T75 culture flasks in Dulbecco's medium containing 10% FBS and 1× Penicillin-Streptomycin and warmed to 37° C. prior to use. The cells were passaged by first washing briefly with 3 ml PBS followed by a 4 min incubation with […] at 37° C. 7 ml media was then added to the flask and the cells dispersed via pipetting (×3) against the bottom of the flask. Two further T75 flasks were each seeded with 2×10^6 cells in 15 ml fresh media.
Cells were seeded on the T75 plates at the same density as on the 6-well plates to the area of a T75 flask and one 1.75 cm radius well from a 6-well plate were compared. 7.79×2 ml of 3×10^5 cells ml^−1 was used to seed a single T75 flask.
HEK cells were removed from a T75 flask as described above. The cells were counted and diluted to 3×10^5 cells/ml in fresh media. Two T75 flasks were each seeded with 15.58 ml diluted cells.
The plasmid DNA (for pFR-Luc and pcDNA3.1_Gal4/NFκB) to be transfected into the HEK cells was first prepared in serum free media (DMEM+Pen/Strep) containing the transfection reagent Fugene 6 (Promega). Transfections were set up as follows (Luc=pFR_Luc, Gal4=pcDNA3.1+_Gal4/NFκB, A2_F=pcDNA3.1+_A2_F)
Serum free media was placed in a 1.5 ml eppendorf tube then the fugene 6 was added into the media. The tube was vortexed for 1 s before being incubated at RT for 5 min. The plasmid DNA was then added to the tube, vortexed for 1 s, then incubated at RT for 15 min
The transfection reagents were then added to the appropriate T75 flask by tipping the flask on end and adding the reagents directly to the media already in the flask. […]
Luminescence was measured at appropriate time points as follows:
Media was discarded into Virkon and the plates washed with 100 ul PBS per well. […] Add 100 μl working luciferin buffer to each well and luminescence was measured immediately.
Media was discarded into Virkon and 100 ul SFM+20 ul CellTitre-Blue solution was added to each well. […] Resorufin fluorescence was measured at 590 nm.

RSV = RSV plaque reduction assay (Comparative Example 1, strain not stated); type: cell-based; details: human respiratory syncytial virus; read-out: RSV Plaque Reduction assay IC50 (Table 4)
Protocol: Plaque Reduction Assay: […] After an overnight incubation at 37° C. in a humidified 5% CO2 atmosphere, the monolayer of cells should be approximately 90% confluent. Antiviral compounds were titrated in pre-warmed Serum Free (SF) Optimem in a U-bottom 96 well plate. […] Media was then removed from cells and replaced with PBS (100 μl/well). RSV stock was thawed and diluted in SF Optimem media to 4000 PFU/mLl. An equal volume of virus was added to compounds on the titration plate. PBS was removed from cells which were then inoculated with the virus/compound solution (50 μL/well). Cells were incubated for 2 h in a 37° C.+5% CO2 humidified incubator to allow infection. […] Cells were subsequently incubated for 48 h at 37° C.+5% CO2 in a humidified incubator. Immunostaining Procedure: Media was removed from cells and the monolayer washed with PBS. Cells were fixed with ice cold 80% Acetone in PBS (100 μl/well) for 20 mins at −20° C. […] Blocking solution was removed and plates washed once with PBS-T. Primary antibody in blocking solution was added to plates (50 μl/well) and incubated for 1 h at 37° C. Plates were then washed 3 times with PBS-T. Secondary antibody in blocking solution was added to plates (50 μL/well) and incubated for 1 h at 37° C. in the dark. […] Data Analysis: Images obtained were saved and plaque numbers counted with the aid of computer imaging software. […]

T1 sequence (P03420 26-109): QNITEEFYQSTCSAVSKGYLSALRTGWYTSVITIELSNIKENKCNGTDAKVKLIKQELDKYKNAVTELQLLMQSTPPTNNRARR
T1 sequence (P03420 137-574): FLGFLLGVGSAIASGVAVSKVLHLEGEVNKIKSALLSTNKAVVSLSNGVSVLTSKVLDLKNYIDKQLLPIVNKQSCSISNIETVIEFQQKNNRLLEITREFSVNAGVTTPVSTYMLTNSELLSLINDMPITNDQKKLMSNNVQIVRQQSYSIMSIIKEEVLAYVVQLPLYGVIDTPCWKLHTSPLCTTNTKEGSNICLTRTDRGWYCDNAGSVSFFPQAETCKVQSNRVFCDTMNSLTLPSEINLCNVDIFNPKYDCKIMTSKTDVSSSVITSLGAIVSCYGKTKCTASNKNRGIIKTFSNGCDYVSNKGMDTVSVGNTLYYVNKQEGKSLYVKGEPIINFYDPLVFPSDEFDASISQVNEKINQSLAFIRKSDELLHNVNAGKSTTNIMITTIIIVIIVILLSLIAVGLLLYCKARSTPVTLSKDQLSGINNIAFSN

| SMILES | half-life at 3 μM ([1]; 3 μM compound, read-out: Liver Microsomal Stability T1/2, human) [min] | IC50 (RSV fusion (A2_F)) [nM] | IC90 (RSV fusion (A2_F); HEK293T/17, read-out: RSV Fusion Assay IC90) [nM] | half-life at 3 μM ([1]; Comparative Example 2, read-out: Liver Microsomal Stability T1/2, human (Table 5)) [min] | IC50 (RSV) [nM] |
| --- | --- | --- | --- | --- | --- |
| NCc1ccc2c(c1)nc(CN1C(=O)C3(CC3)c3ccc(F)cc31)n2CCCC(F)(F)F [Example 1, 1′-{[5-(Aminomethyl)-1-(4,4,4-trifluorobutyl)-1H-1,3-benzodiazol-2-yl]methyl}-6′-fluoro-1′,2′-dihydrospiro[cyclopropane-1,3′-indole]-2′-one] | 32 | 1.1 | 9.4 | – | – |
| CC(C)CCn1c(CN2C(=O)C3(CC3)c3ccccc32)nc2cc(CN)ccc21 [RV039, 1′-((5-(aminomethyl)-1-isopentyl-1H-benzo[d]imidazol-2-yl)methyl)spiro[cyclopropane-1,3′-indolin]-2′-one, reference compound] | – | 10 | – | 5 | 31 |
